According to patent publication US20120136033A1, “Small Molecule Antagonists of Phosphatidylinositol-3,4,5-Triphosphate (PIP3) and Uses Thereof” (President and Fellows of Harvard College, priority 2009, published 2012):

Experiments:
[1] = system: SV40-transformed mouse adult lung fibroblasts; test: loss of viability, Akt1-expressing vs Akt1-3 triple knockout lung fibroblasts; type: cell-based; conditions: P<0.01
Source text: Shaughnessy J D (2008) Nature 454:172-3; Weinstein I G (2002) Science 297:63-4. Therefore, the possibility that PIT-1 may cause preferential cell death in the cells containing elevated PIP3 levels was examined. […] Li D M et al. (1998) Proc Natl Acad Sci USA 95:15406-11. […] This observation is consistent with the notion that PTEN-deficient cancer cells become overly dependent on PIP3 signaling and, therefore, are hypersensitive to disruption of this pathway compared to wild-type PTEN-expressing cells. Neshat M S et al. (2001) Proc Natl Acad Sci USA 98:10314-9.

cells = test: cell death with inhibitors of mitochondrial respiration and ATP synthase; type: cell-based
Source text: Elstrom R L et al. (2004) Cancer Res 64:3892-9.

human cancer cells = test: transwell (Boyden chamber) migration of cancer cells; type: cell-based
Procedure: Two models of cell migration were used, a transwell migration model and a wound closure model. Migration of cancer and endothelial cells was evaluated using 24-transwell Boyden chamber (Costar, Bedford, Mass.) with a polystyrene membrane (6.5 mm diameter, 10 μm thickness, and 8 μm pore size). Cells were suspended in serum-free media and seeded in the upper compartment of each well (2×10^4 cells/well) in the presence or absence of different compounds at the indicated concentrations. The lower compartment contained 600 μl of serum-free culture media supplemented with growth factors. After an 8-hr incubation at 37° C., cells were fixed and stained with 0.1% crystal violet. Non-migrating cells on the upper surface of the filter were removed, and the stained cells that migrated to the lower side were photographed using a phase-contrast microscope (Nikon, Japan) in five random fields. The cells were lysed with 10% acetic acid, and colorimetric determination was made at 595 nm using Wallac Victor 3 plate reader.

[2] = system: PH domains of Akt, PDK1, and IRS1; conditions: cited from earlier work
[3] = cited from earlier work
PI3K-PDK1-Akt pathway = PI3K-PDK1-Akt pathway phosphorylation events in U87MG cells; type: cell-based, human
Procedure: The effect of PIT-1 on PIP3-mediated signaling was examined in U87MG glioblastoma cells, which show elevated basal levels of PIP3 due to the loss of PTEN. Pore N et al. (2003) Cancer Res 63:236-41.

U87MG cells [4] = test: U87MG cell viability, ATP assay; type: cell-based, human
Procedure: U87MG cells were incubated with PITs (12.5-100 μM) for 48 hr. Cell viability was determined using ATP assay.
Based on the critical role of PIP3-dependent Akt signaling in the regulation of cell survival, the effect of PIT-1 on the cancer cell viability was tested. Cancer cells were seeded into 96-well plates (white plates for ATP assay; black plates for fluorescent assay; clear plates for MTS assay) at the density of 5-10×10^3 cells per well in 100 μl of the appropriate media. Compounds were added at a series of concentrations and incubated for different times. For the ATP assay, a luminescence-based commercial kit (CellTiter-Glo, Promega, Madison, Wis.) was used. Thirty microliters of cell lysis/ATP detection reagent was added to each well, mixed for 10 min at room temperature, and the luminescence was measured using a Wallac Victor 3 plate reader (Perkin-Elmer, Wellesley, Mass.). For the MTS assay, a CellTiter 96 AQueous Non-Radioactive Cell Proliferation Assay Kit (Promega, Madison, Wis., USA) was used. Twenty microliters of the combined MTS/PMS solution was added into each well, incubated for 4 hr at 37° C., and the absorbance at 490 nm was measured using a Wallac Victor 3 plate reader. For the Sytox cell death assay, measuring loss of plasma membrane integrity, cells were incubated with 1 μM Sytox Green reagent (Molecular Probes, Eugene, Oreg.) for 30 min at 37° C. and the fluorescence intensity was measured using Wallac Victor 3 plate reader with excitation at 485 nm and emission at 545 nm. Next, 5 μl of 20% (v/v) Triton X-100 solution was added to each well and incubated for 1 hr at 37° C., and the signal was measured again. The ratio of values (percentage of dead cells in each well) before and after Triton X-100 treatment was calculated and normalized to the relevant controls not subjected to the cytotoxic stimuli. IC50 values were determined using Origin6 software (MicroCal, LLC, Northampton, Mass.).

[5] = solubility / precipitation; type: physicochemical; conditions: 300 μM, unencapsulated, cell media
Source text: This method has been reported to be efficient for in vivo targeting of cancer cells by other poorly soluble anti-cancer drugs, such as m-porphyrin, tamoxifen, and taxol. Gao Z et al. (2003) J Drug Target 11:87-92; Torchilin V P et al. (2003) Proc Natl Acad Sci USA 100:6039-44.
The size of the DM-PIT-1-loaded micelles was about 15 nm with a narrow size distribution.

4T1 breast cancer = test: syngeneic 4T1 breast tumor growth in BALB/c mice; type: in vivo, mouse
Procedure: After inoculation of tumor cells, DM-PIT-1 or DM-PIT-1-M were administered i.v. daily at doses of 0.4 mg/kg and 1 mg/kg, respectively, for 8 days. Tumor volumes as measured every two days are shown.
The effect of intravenous (i.v.) administration of both unencapsulated DM-PIT-1 in PBS and DM-PIT-1-M on the syngeneic 4T1 breast cancer growth in BALB/c mice was examined. 4T1 metastatic breast cancer cells were first cultured in vitro in DMEM medium containing 10% FBS and antibiotics. After re-suspension in PBS, the 4T1 cancer cells (8×10^4) were injected s.c. into axillary regions of BALB/c mice. The treatment with PIT-1 began on day 11 after inoculation of tumor cells, i.e., when tumors were palpable, but before tumors are precisely measurable (˜50 mm^3). Working solutions of all PIT-1-formulations were made in sterile 0.9% NaCl before injection into mice. Free DM-PIT-1 and micellar DM-PIT-1 were administered i.v. daily at doses of 0.4 and 1 mg/kg, respectively, for 8 days. If the tumor size reached approx. 1000 mm^3, the mice were euthanized using carbon dioxide (CO2) prior to cervical dislocation. Seven mice per group were used. The tumor volume (V) was measured every two days by microcaliper for 8 days. Tumor volume was calculated according to the formula ([…])/2, where α is the longest and b is the shortest diameter of tumor, respectively.

CD31 = test: tumor angiogenesis in vivo, microvasculature marker CD31; conditions: mouse
Procedure: Tumor tissues were fixed in phosphate-buffered formalin, embedded in paraffin, cut in 4 μM thickness, and applied to slides. The slides were deparaffinized in xylenes using three changes for 5 min each, and hydrated gradually through graded alcohols: 100% ethanol twice for 10 min each, 95% ethanol twice for 10 min each, and then deionized water for 1 min with stirring. For antigen unmasking, slides were placed in a container, covered with 10 mM sodium citrate buffer, pH 6.0, and heated in a convection steamer for 1 hr. The slides were washed in deionized water three times for 2 min each, blocked with 5% normal goat blocking serum for 30 min, incubated with goat anti-CD31 primary antibody for 1 hr, and incubated with an Alexa Fluor 488-conjugated secondary antibody for 30 min. The slides were analyzed and photographed using a fluorescent microscope. TUNEL staining was performed using FragEL kit according to manufacturer's instructions (Calbiochem).
In view of the significant inhibitory effect of PIT-1 on angiogenesis observed in vitro, the extent of angiogenesis in DM-PIT-1-treated tumors was examined in vivo using microvasculature marker CD31. […] Suppression of angiogenesis also likely contributed to the suppression of tumor growth by DM-PIT-1 treatment in vivo, considering a relatively low dose of the compound used in the experiments.

U87MG cells [6] = test: sensitization of U87MG cells to killing by TRAIL, ATP assay; type: cell-based, human
Procedure: FIG. 10 is a bar graph depicting that PITs, as well as Akt inhibitor VIII, sensitize U87MG cells to killing by TRAIL. U87MG cells were incubated with 50 μM PIT-1, PIT-2, PIT-1i-1 or 10 μM Akt inhibitor VIII in the presence or absence of 10 ng/ml TRAIL for 48 hr, followed by cell viability analysis using ATP assay.
Based on the critical role of PIP3-dependent Akt signaling in the regulation of cell survival, the effect of PIT-1 on the cancer cell viability was tested. Cancer cells were seeded into 96-well plates (white plates for ATP assay; black plates for fluorescent assay; clear plates for MTS assay) at the density of 5-10×10^3 cells per well in 100 μl of the appropriate media. […] For the ATP assay, a luminescence-based commercial kit (CellTiter-Glo, Promega, Madison, Wis.) was used. Thirty microliters of cell lysis/ATP detection reagent was added to each well, mixed for 10 min at room temperature, and the luminescence was measured using a Wallac Victor 3 plate reader (Perkin-Elmer, Wellesley, Mass.). […] Twenty microliters of the combined MTS/PMS solution was added into each well, incubated for 4 hr at 37° C., and the absorbance at 490 nm was measured using a Wallac Victor 3 plate reader. […] Next, 5 μl of 20% (v/v) Triton X-100 solution was added to each well and incubated for 1 hr at 37° C., and the signal was measured again. […]

## O=c1[nH]c2ccccc2n1C1CCN(Cc2ccc(-c3nc4cc5[nH]cnc5cc4nc3-c3ccccc3)cc2)CC1 [Akt kinase inhibitor VIII, reference compound]
[1]
  loss of viability in Akt1-expressing fibroblasts compared to Akt1-3 triple knockout cells: comparable
cells
  synergy with oligomycin, antimycin A and rotenone in inducing cell death: synergized
Human cancer cells; transwell / wound healing models
  inhibition of cancer cell migration: lack thereof

## CC1=NN(C(=O)c2ccc(Cl)cc2)C(=O)C1N=Nc1ccc(S(=O)(=O)Nc2ncccn2)cc1 (centres unmarked) [NSC 348900, 4-[1-(4-chlorobenzoyl)-3-methyl-5-oxo-4,5-dihydro-1H-pyrazol-4-ylazo]-N-pyrimidine-2-yl-benzenesulfonamide]
[2]
  interaction with PH domains of Akt, PDK1, and IRS1: capable of interacting
[3]
  in vivo anti-tumor activity: lacked in vivo anti-tumor activity

## Cc1cc(C)cc(C(=O)NC(=S)Nc2cc([N+](=O)[O-])ccc2O)c1 [DM-PIT-1]
PI3K-PDK1-Akt pathway
  activity compared to PIT-1 in inhibition of PI3K-PDK1-Akt signaling: increased activity
U87MG cells [4]
  activity compared to PIT-1 in inducing cell death in U87MG cells: increased activity
Human cancer cells
  activity compared to PIT-1 in inhibition of cell migration: increased activity
[5]
  precipitation in cell media at 300 μM: significant precipitation
4T1 breast cancer; 8-day administration, P<0.01
  tumor growth in vivo compared to control: significantly attenuated tumor growth
4T1 breast cancer; day 8, i.v. daily, free 0.4 mg/kg, micellar 1 mg/kg
  reduction of tumor volume as compared to control: 58.1%
4T1 breast cancer; day 8, i.v. daily, free 0.4 mg/kg, micellar 1 mg/kg, control 902.5±153
  tumor volume: 380±52.3 mm^3
CD31
  CD31 loci in treated tumors (angiogenesis in vivo): attenuation of a number of CD31 loci

B1: TRAIL: Tumor necrosis factor (TNF)-related apoptosis-inducing ligand, 281 amino acid-long member of the TNF family of cytokines (protein, UniProt P50591 1-281, looked up)
chain: MAMMEVQGGPSLGQTCVLIVIFTVLLQSLCVAVTYVYFTNELKQMQDKYSKSGIACFLKEDDSYWDPNDEESMNSPCWQVKWQLRQLVRKMILRTSEETISTVQEKQQNISPLVRERGPQRVAAHITGTRGRSNTLSSPNSKNEKALGRKINSWESSRSGHSFLSNLHLRNGELVIHEKGFYYIYSQTYFRFQEEIKENTKNDKQMVQYIYKYTSYPDPILLMKSARNSCWSKDAEYGLYSIYQGGIFELKENDRIFVSVTNEHLIDMDHEASFFGAFLVG
modifications: full-length
notes: Tumor necrosis factor (TNF)-related apoptosis-inducing ligand, 281 amino acid-long member of the TNF family of cytokines
U87MG cells [6]
  sensitivity of U87MG cells to TRAIL alone: entirely resistant
